Patent US20200138829A1, “METHODS OF CANCER TREATMENT” (Ferro Therapeutics, Inc., priority 2017, published 2020)
Where a name gives a salt, the structure may show the parent alone. Read-outs that look alike come from different tables or passages of the source. * marks the point of attachment. Cbz = O=C(OCc1ccccc1)*; CH2F = FC*

Legend:
Capan-1 cells [1] = test: Combination proliferation assay with PKC activator, Capan-1; assay type: cell-based
Method: (§1) Cell viability assay was performed to assess the potency of the ferroptosis inducer compounds in various cancer cell lines with K-Ras mutations. Cells at a density of 1,000-10,000 cells/well were seeded in 96-well plates and incubated at 37° C. overnight. A series of 9 different concentrations of compound stocks (500×) were created by 3-fold serial dilution in DMSO. These compounds were further diluted in culture media and then added to cells so that the final DMSO concentration was equal to 0.25% or less. After 96 hours of incubation, 50 μL of CellTiter Glo reagent (Promega) was added to each well and luminescence was measured after 10 minutes using EnVision (PerkinElmer). K101A (a PKC activator) was used as the reference compound titrated from top concentration of 30 μM. All compounds were tested initially from 30 μM as the top concentration in duplicates (range of 4.6 nM-30 μM). […] Data was analyzed using XL-fit software (ID Business Solutions Ltd.). IC50, relative IC50, or % of top inhibition was calculated.
(§2) Therefore, whether PKC activators synergize or antagonize with ferroptosis inducers can be tested empirically.

A549 cells [2] = test: Combination proliferation assay with PKC activator, A549; assay type: cell-based; conditions: inducer at concentration with minimal or no effect alone
Method: as §1, §2

Panc2.13 cells [3] = test: Combination proliferation assay with PKC activator, Panc2.13; assay type: cell-based
Method: as §1, §2

Mino cell line = test: Combination proliferation assay with PKC activator, Mino; assay type: cell-based
Method: as §1, §2
(§3) Therefore, it is of interest to test combination treatment of both classes of compounds in lymphoma cells.

Namalwa cell line = test: Combination proliferation assay with PKC activator, Namalwa; assay type: cell-based
Method: as §1, §2, §3

KP-4 cells [4] = test: Combination proliferation assay with PKC activator, KP-4; assay type: cell-based
Method: as §1, §2

Panc1 cells = test: Combination proliferation assay with PKC activator, Panc1; assay type: cell-based
Method: as §1, §2

[5] = tested on: A549 lung cancer cell line; test: Cell viability assay (CellTiter Glo), A549; assay type: cell-based
Method: (§4) Cell viability assay was performed to assess the potency of the ferroptosis inducer compounds in various cancer cell lines with K-Ras mutations. […] A series of 9 different concentrations of compound stocks (500×) were created by 3-fold serial dilution in DMSO. […] After 96 hours of incubation, 50 μL of CellTiter Glo reagent (Promega) was added to each well and luminescence was measured after 10 minutes using EnVision (PerkinElmer). […] […] IC50, relative IC50, or % of top inhibition was calculated.

[6] = tested on: KP-4 pancreatic cancer cell line; test: Cell viability assay (CellTiter Glo), KP-4; assay type: cell-based; conditions: for selectivity for KP-4 over A549: KP-4 versus A549
Method: as §4

KP-4 cells [7] = test: Effect of ferroptosis or apoptosis inhibitor on RSL3- or Erastin-induced cell death, KP-4; conditions: KP-4; for effect on cell death induced by RSL3 or Erastin: co-treatment
Method: as §1
Ferroptosis inhibitors include: Ferrostatin-1 and Liproxstatin-1, inhibitors of ROS accumulation; Deferoxamine, an iron chelator; and PD146176, a 15-lipoxygenase inhibitor (see, e.g., Hofman et al., 2016, J Med Chem. March 10; 59(5):2041-53; Yang et al., 2016 Cell 26(3):165-176). The apoptosis inhibitor chosen was ZVAD (see, e.g. Wu et al., 2011, Cell Death and Differentiation 18:26-37). Ferroptosis inhibitors and ZVAD were first titrated as a single agent as shown in Example 1.

[8] = tested on: A549, MiaPaCa-2, and KP-4; test: Cell viability assay, comparison across A549, MiaPaCa-2 and KP-4; assay type: cell-based; conditions: single agent
Method: as §1

PSN-1 cells [9] = test: Combination proliferation assay with PKC activator, PSN-1; assay type: cell-based
Method: as §1, §2

Panc2.13 cells [10] = test: Cell viability assay (CellTiter Glo), Panc2.13; assay type: cell-based; conditions: Panc2.13 versus A549
Method: (§5) Cell viability assay was performed to assess the potency of the ferroptosis inducer compounds in various cancer cell lines with K-Ras mutations. […] A series of 9 different concentrations of compound stocks (500×) were created by 3-fold serial dilution in DMSO. […] After 96 hours of incubation, 50 μL of CellTiter Glo reagent (Promega) was added to each well and luminescence was measured after 10 minutes using EnVision (PerkinElmer). […] IC50, relative IC50, or % of top inhibition was calculated. Next, RSL3, ML210, Erastin, and Auranofin were tested on additional K-RAS mutant pancreatic cell lines (Panc1, Panc6.03, Panc2.13, PSN-1, and Capan-1) in Table 1.

[11] = tested on: K-RAS mutant pancreatic cell lines; test: Cell viability assay, several pancreatic cell lines compared with A549; assay type: cell-based; conditions: for potency in the pancreatic cell lines relative to A549 (in words): MiaPaCa-2 and KP-4 versus A549
Method: as §5

Capan-1 cells [12] = test: Cell viability assay (CellTiter Glo), Capan-1; assay type: cell-based
Method: as §5

[13] = tested on: MiaPaCa-2 pancreatic cancer cell line; test: Cell viability assay (CellTiter Glo), MiaPaCa-2; assay type: cell-based; conditions: Homo sapiens, MIA PaCa-2, 96 hours of incubation
Method: as §4

A549 cells [14] = test: Effect of ferroptosis or apoptosis inhibitor on RSL3- or Erastin-induced cell death, A549; conditions: A549; ZVAD
Method: as §1
Ferroptosis inhibitors include: Ferrostatin-1 and Liproxstatin-1, inhibitors of ROS accumulation; Deferoxamine, an iron chelator; and PD146176, a 15-lipoxygenase inhibitor (see, e.g., Hofman et al., 2016, J Med Chem. March 10; 59(5):2041-53; Yang et al., 2016 Cell 26(3):165-176). […]

PSN-1 cells [15] = test: Cell viability assay (CellTiter Glo), PSN-1; assay type: cell-based; conditions: PSN-1; 96 hours of incubation
Method: as §5

CC[P](CC)(CC)=[Au][S]C1OC(COC(C)=O)C(OC(C)=O)C(CC(C)=O)C1OC(C)=O (stereo not shown)
synergy with K101A or K102 to block proliferation (Capan-1 cells [1]): did not synergize | synergy with K101A or K102 to block proliferation (A549 cells [2]): No synergy | synergy with K101A or K102 to block proliferation (Panc2.13 cells [3]): did not synergize | synergy when combined with K101A or K102 (Mino cell line): moderate synergy | synergy when combined with K101A or K102 (Namalwa cell line): minor synergy | synergy when combined with K101A or K102 (KP-4 cells [4]): no synergy | synergy with K101A or K102 to block proliferation (Panc1 cells; inducer up to 1 μM): No synergistic effects

C=CCNc1nc(NCC=C)nc(N2CCN(C(c3ccc(F)cc3)c3ccc(F)cc3)CC2)n1 [Almitrine]
potency of inhibition of A549 cells (in words) [5]: very weak inhibitors

CN(C)c1nc(N(C)C)nc(N(C)C)n1 [Altretamine]
potency of inhibition of A549 cells (in words) [5]: very weak inhibitors

CO[C@H]1O[C@@H]2O[C@@]3(C)CC[C@H]4[C@H](C)CC[C@@H]([C@H]1C)[C@@]24OO3 [Artemether]
selectivity for KP-4 over A549 [6]: > 5 fold

C[C@H]1[C@H](OC(=O)CCC(=O)O)O[C@@H]2O[C@@]3(C)CC[C@H]4[C@H](C)CC[C@@H]1[C@@]24OO3 [Artesunate]
synergy when combined with K101A or K102 (KP-4 cells [4]): moderate/minor synergy

CC(=O)N(O)CCCCCNC(=O)CCC(=O)N(O)CCCCCNC(=O)CCC(=O)N(O)CCCCCN [Deferoxamine mesylate]
effect on RSL3- or Erastin-induced cell death (KP-4 cells [7]; Deferoxamine): did not rescue | differential activity among three cell lines [8]: do not show differential activity | potency in blocking cell proliferation (in words) [8]: not potent

CCOC(=O)c1ccc(NC2CCCCC2)c(N)c1 [Ferrostatin-1]
effect on cell death induced by RSL3 or Erastin (KP-4 cells [7]; Ferrostatin-1 at 3 μM): completely abrogated cell death | differential activity among three cell lines [8]: do not show differential activity | potency in blocking cell proliferation (in words) [8]: not potent

CC(=O)O[C@@]12C[C@@H](C)[C@@]3(O)[C@@H](C=C(CO)C[C@]4(O)C(=O)C(C)=C[C@@H]34)[C@@H]1C2(C)C [K101A, 12-deoxyphorbol 13-acetate]
% of top inhibition by K101A or K102 without ferroptosis inducer (Panc2.13 cells [3]): ~60%

C/C=C(/C)C(=O)O[C@H]1C(C)=C[C@]23C(=O)[C@@H](C=C(CO)[C@@H](O)[C@]12O)[C@H]1[C@@H](C[C@H]3C)C1(C)C [K102, ingenol-3-angelate]
% of top inhibition by K101A or K102 without ferroptosis inducer (Panc2.13 cells [3]): ~60%

Clc1cccc(CN=C2Nc3ccccc3NC23CCNCC3)c1 [Liproxstatin-1]
effect on cell death induced by RSL3 or Erastin (KP-4 cells [7]; Liproxstatin-1 at 304): completely abrogated cell death | differential activity among three cell lines [8]: do not show differential activity | potency in blocking cell proliferation (in words) [8]: not potent

COc1ccc(N(C(=O)CCl)C(C(=O)NCCc2ccccc2)c2cccs2)cc1Cl (stereo not shown) [ML162]
selectivity for KP-4 over A549 [6]: > 80 fold

Cc1onc(C(=O)N2CCN(C(c3ccc(Cl)cc3)c3ccc(Cl)cc3)CC2)c1[N+](=O)[O-] [ML210]
synergy with K101A (PKC activators) to block proliferation (PSN-1 cells [9]): synergized | % of top inhibition by K101A or K102 in combination with the ferroptosis inducer (Capan-1 cells [1]): ~80% | effect on the potency of K101A or K102 (Capan-1 cells [1]): increased the potency | synergy with K101A or K102 to block proliferation (Capan-1 cells [1]): synergized strongly | selectivity in comparison to A549 (Panc2.13 cells [10]): no selectivity | potency in the pancreatic cell lines relative to A549 (in words) [11]: at least two orders of magnitude more potent | sensitivity in comparison to A549 ([11]; range over Panc1, Panc6.03, and PSN-1): 8-30 fold | synergy with K101A or K102 to block proliferation (A549 cells [2]): minor synergy | % of top inhibition by K101A or K102 in combination with the ferroptosis inducer (Panc2.13 cells [3]): ~80% | effect on the potency of K101A or K102 (Panc2.13 cells [3]): increased the potency | synergy with K101A or K102 to block proliferation (Panc2.13 cells [3]): synergized | synergy when combined with K101A or K102 (Mino cell line): minor synergy | synergy when combined with K101A or K102 (KP-4 cells [4]): no synergy | effect on the potency of K101A or K102 (Panc1 cells): increasing the potency | synergy with K101A or K102 to block proliferation (Panc1 cells): synergized | selectivity in comparison to A549 (Capan-1 cells [12]; Capan-1 versus A549): no selectivity

c1ccc2c(c1)SCc1c-2[nH]c2ccccc12 [PD146176]
effect on RSL3- or Erastin-induced cell death (KP-4 cells [7]; PD146176 at 0.504): partially reversed | differential activity among three cell lines [8]: do not show differential activity | potency in blocking cell proliferation (in words) [8]: not potent

COC(=O)c1ccc([C@H]2c3[nH]c4ccccc4c3C[C@H](C(=O)OC)N2C(=O)CCl)cc1 [RSL3]
synergy with K101A (PKC activators) to block proliferation (PSN-1 cells [9]): synergized | IC50 ([5]; Homo sapiens, A549 lung cancer cell line, 96 hours of incubation): 1880 nM | IC50 ([6]; Pancreatic cancer cell, KP-4, 96 hours of incubation): 2 nM | % of top inhibition by K101A or K102 in combination with the ferroptosis inducer (Capan-1 cells [1]): ~80% | effect on the potency of K101A or K102 (Capan-1 cells [1]): increased the potency | synergy with K101A or K102 to block proliferation (Capan-1 cells [1]): synergized strongly | potency in the pancreatic cell lines relative to A549 (in words) [11]: two to three orders of magnitude more potent | selective cell death in comparison to A549 ([11]; range over all five lines Panc1, Panc6.03, Panc2.13, PSN-1, Capan-1): 2-26 fold | synergy with K101A or K102 to block proliferation (A549 cells [2]): synergized strongly | IC50 [13]: 8 nM | % of top inhibition by K101A or K102 in combination with the ferroptosis inducer (Panc2.13 cells [3]): ~80% | effect on the potency of K101A or K102 (Panc2.13 cells [3]): increased the potency | synergy with K101A or K102 to block proliferation (Panc2.13 cells [3]): synergized | effect of addition to K101A or K102 on potency and % of top inhibition (Namalwa cell line): improved potency and % of top inhibition | synergy when combined with K101A or K102 (KP-4 cells [4]): only additive effects | effect on the potency of K101A or K102 (Panc1 cells): increasing the potency | synergy with K101A or K102 to block proliferation (Panc1 cells): synergized

O=C(O)c1cc(/N=N/c2ccc(S(=O)(=O)Nc3ccccn3)cc2)ccc1O [Sulfasalazine]
synergy with K101A or K102 to block proliferation (A549 cells [2]): No synergy | synergy with K101A or K102 to block proliferation (Panc2.13 cells [3]): did not synergize

Buthionine sulfoximine [BSO]
effect on A549 cells ([5]; at very high concentration (>1 mM)): minimal effects

Cbz-Val-Ala-Asp-CH2F
effect on RSL3- or Erastin-induced cell death (KP-4 cells [7]; ZVAD at 30 μM): did not rescue | effect on RSL3- or Erastin-induced cell death (A549 cells [14]): did not rescue | differential activity among three cell lines [8]: do not show differential activity | potency in blocking cell proliferation (in words) [8]: not potent

Dihydroartemisinin
synergy with K101A (PKC activators) to block proliferation (PSN-1 cells [9]): no synergy | IC50 (PSN-1 cells [15]): 540 nM | synergy when combined with K101A or K102 (KP-4 cells [4]): moderate/minor synergy | IC50 (Capan-1 cells [12]; Capan-1, 96 hours of incubation): 2150 nM
